Assay results as given in PMC9923724, “Half sandwich-type osmium, ruthenium, iridium and rhodium complexes with bidentate glycosyl heterocyclic ligands induce cytostasis in platinum-resistant ovarian cancer cells and bacteriostasis in Gram-positive multiresistant bacteria” (Frontiers in Chemistry, 2023).

System: A2780 ovarian cancer cells
Assay: SRB assay (cytostasis, 48 h) on A2780 cells
Format: cell-based
Conditions: 48 h treatment
Description: First, we assessed a set of osmium complexes (similar to Ia [[Kacsir et al., 2022]) in Figure 1] and their sugar-derived ligands, in which the benzoyl protective groups on the carbohydrate moiety were replaced by aliphatic acyl groups of different chain length (straight chain C3-C7–CO). Osmium was selected as a central ion, since osmium complexes had the best biological activity in our previous studies ([Balázs et al., 2022]; [Kacsir et al., 2022]). These compounds were tested on A2780 ovarian cancer cells for toxicity and cytostasis. The therapy of ovarian cancer is centered around platinum compounds ([Brown et al., 2019]; [Sipos et al., 2021]), therefore, it was logical to use a cellular model of ovarian cancer for the initial testing of the compounds. Toxicity was assessed using the MTT assay that measures the activity of mitochondrial complex I. We chose 4 h long treatment as in an MTT assay this time point is suitable to detect rapid, direct toxicity. Cytostasis was assessed after 48 h of treatment using the SRB assay that assesses protein content that corresponds to cell count. The characteristics of the compounds are detailed in Table 2.
3 × 10^3 A2780 cells, were plated to 96 well plates. Cells were treated with the compounds in the concentrations indicated for either 4 h for an MTT assay or for 48 h for an SRB assay. Data is represented as average ± SD, from three biological replicates; individual assays were performed in duplicates. Values were normalized for vehicle treated cells, absorbance for vehicle treated cells equals to 1. […] Except for the Os-6 complex, Two-way ANOVA test was performed and all values were compared with each other (Tukey’s post hoc test). […] Non-linear regression was performed on the data.
3 × 10^3 A2780 cells, 2 × 10^3 ID8 cells and 4 × 10^3 primary fibroblasts were plated to 96 well plates. Cells were treated with the compounds in the concentrations indicated for either 4 h for an MTT assay or for 48 h for an SRB assay. Data is represented as average ± SD, from three biological replicates; individual assays were performed in duplicates. Values were normalized for vehicle treated cells, absorbance for vehicle treated cells equals to 1. Statistical significance was assessed using two-way ANOVA test comparing the free ligand and each complex as a complex-ligand pair. Before the test normality was assessed using the D’Agostino-Pearson test. The ID8 SRB Ir-7+L-7 dataset had lognormal distribution. […] All other datasets had normal distribution. For better visibility the p values are presented in an excel sheet at https://figshare.com/s/2c942a812caea8869a67. Non-linear regression was performed on the A2780 SRB and the ID8 SRB datasets.
The assay was performed similar to ([Kovács et al., 2019]). Cells were seeded in 96 well plates the day before the assay. Cells were treated with the compounds for 48 h. Cells were fixed with 10% trichloroacetic acid (TCA). Fixed cells were washed in distilled water 3 times followed by staining with SRB (0.4 m/V% dissolved in 1% acetic acid) for 10 min. Stained cells were washed in 1% acetic acid 5 times; acetic acid was removed and cells were left to dry. Protein-bound SRB was released by adding 100 µl 10 mM Tris base. Plates were measured in a plate photometer (Thermo Scientific Multiscan GO spectrophotometer, Waltham, MA, United States) at 540 nm. On each plate wells were designed to contain vehicle-treated cells. In calculations the readings for these wells was considered as 1 and all readings were expressed relative to these values.
Statistical analysis was performed using 8.0.1 version of Graphpad Prism. Values were tested for normal distribution using the D’Agostino and Pearson normality test. When necessary, values were log normalized or were normalized using the Box-Cox normalization method ([Box and Cox, 1964]) as indicated in the figure captions. […]

| SMILES | A2780 SRB Max. (maximal inhibition) |
| --- | --- |
| CCCC(=O)OC[C@H]1O[C@@H](n2cc(-c3ccccn3)nn2)[C@H](OC(=O)CCC)[C@@H](OC(=O)CCC)[C@@H]1OC(=O)CCC [L-2] | 21.2% |
| CCCCC(=O)OC[C@H]1O[C@@H](n2cc(-c3ccccn3)nn2)[C@H](OC(=O)CCCC)[C@@H](OC(=O)CCCC)[C@@H]1OC(=O)CCCC [L-3] | 32.0% |
| CCCCCC(=O)OC[C@H]1O[C@@H](n2cc(-c3ccccn3)nn2)[C@H](OC(=O)CCCCC)[C@@H](OC(=O)CCCCC)[C@@H]1OC(=O)CCCCC [L-4] | 26.9% |
| CCCCCCC(=O)OC[C@H]1O[C@@H](n2cc(-c3ccccn3)nn2)[C@H](OC(=O)CCCCCC)[C@@H](OC(=O)CCCCCC)[C@@H]1OC(=O)CCCCCC [L-5] | 28.5% |
| O=C(OC[C@H]1O[C@@H](n2cc(-c3ccc4ccccc4n3)nn2)[C@H](OC(=O)c2ccccc2)[C@@H](OC(=O)c2ccccc2)[C@@H]1OC(=O)c1ccccc1)c1ccccc1 [L-7, 1-(2’,3’,4’,6’-tetra-O-benzoyl-β-D-glucopyranosyl)-4-(quinolin-2-yl)-1,2,3,-triazole] | 16.9% |
